Experimental data: US8802597B2, “Herbicidal pyrimidines” (E I du Pont de Nemours and Company, priority 2003, dated 2014)

Key:
[1] = system: Canada thistle (Cirsium arvense); experiment: Test L field study, Compound 1 and nicosulfuron; format: in vivo; details: Nicosulfuron 18 g a.i./ha, approximately 56 days after treatment
Source text: (§1) This field study included treatments that consisted of Compound 1 and nicosulfuron alone and in combination on Canada thistle (Cirsium arvense) and daisy fleabane (Erigeron spp.). The plants ranged from 20 to 30 cm in height at the time of application during the month of May in the vicinity of Newark, Del. Compound 1 was formulated as a wettable powder containing 25% active ingredient by weight. Nicosulfuron was in the form of Accent® Herbicide, a water-dispersible granule formulation containing 75% active ingredient by weight. The formulations were dispersed in water in the sprayer tank before treatment. The treatments were made using a backpack sprayer calibrated to deliver 24 gallons per acre (224 L per hectare) to a 10 ft×30 ft (3 m×9 m) plot. Each treatment was replicated two times. The effects on the plants approximately 56 days after treatment were visually compared to untreated controls. Plant response ratings were calculated as the means of the two replicates, based on a scale of 0 to 100 where 0 is no effect and 100 is complete control. Colby's Equation was used to determine the herbicidal effects expected from the mixture.

[2] = system: daisy fleabane (Erigeron spp.); experiment: Test L field study, Compound 1 and nicosulfuron; format: in vivo; details: Nicosulfuron 18 g a.i./ha, approximately 56 days after treatment
Source text: as §1

## COc1cc(OC)nc(NC(=O)NS(=O)(=O)c2ncccc2C(=O)N(C)C)n1 [Nicosulfuron, nicosulfuron, reference compound]
[1]
  Obsd. observed effect (0 to 100 scale): 15
[2]
  Obsd. observed effect (0 to 100 scale): 28
